Measured values from ChEMBL document CHEMBL5528020, “Small molecular CD73 inhibitors: Recent progress and future perspectives” (Eur J Med Chem, 2024).

molecular target: 5'-nucleotidase (Homo sapiens, UniProt P21589); assay: Inhibition of human recombinant Ecto-5'-nucleotidase
Sequence (P21589 whole entry): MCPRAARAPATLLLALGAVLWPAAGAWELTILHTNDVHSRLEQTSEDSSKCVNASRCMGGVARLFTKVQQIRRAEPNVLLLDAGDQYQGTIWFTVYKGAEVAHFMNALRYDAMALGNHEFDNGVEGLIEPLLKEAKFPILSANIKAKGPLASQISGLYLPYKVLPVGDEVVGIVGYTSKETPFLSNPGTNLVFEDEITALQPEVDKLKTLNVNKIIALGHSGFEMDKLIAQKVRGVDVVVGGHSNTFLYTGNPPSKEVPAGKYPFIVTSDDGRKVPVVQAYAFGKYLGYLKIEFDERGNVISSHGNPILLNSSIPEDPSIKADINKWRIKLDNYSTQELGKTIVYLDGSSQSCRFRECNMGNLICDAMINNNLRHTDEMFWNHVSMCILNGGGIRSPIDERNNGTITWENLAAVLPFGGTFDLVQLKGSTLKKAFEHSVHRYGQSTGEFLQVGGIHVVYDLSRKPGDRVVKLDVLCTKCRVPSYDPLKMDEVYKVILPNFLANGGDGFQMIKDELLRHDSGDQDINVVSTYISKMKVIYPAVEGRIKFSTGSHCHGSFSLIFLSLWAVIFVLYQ

| SMILES | IC50 |
| --- | --- |
| O=S(=O)(c1ccc(-n2nccc2-c2ccc3nnn(-c4ccc5cn[nH]c5c4)c3c2)c(Br)c1)C(F)(F)F | > 0.1 nM |
| N#Cc1ccc(-c2ncsc2-c2cc3c(-c4ccc5cn[nH]c5c4)nnc-3co2)cc1 | > 0.1 nM |
| Cc1nc(-c2ccnn2-c2ccc(C#N)cc2)nc2cc(-c3ccc4cn[nH]c4c3)cnc12 | > 0.1 nM |
| O=S(=O)(c1ccc(-n2nccc2-c2ccc3nnn(-c4ccc5cn[nH]c5c4)c3c2)cc1Br)C(F)(F)F | > 0.1 nM |
| CC1NC(n2nnc3ccc(-c4ccnn4-c4ccc(C#N)cc4)cc32)CCS1 (stereo not drawn) | > 0.1 nM |
| O=S(=O)(c1ccc(-c2nsnc2-c2cc3c(-c4cccc(O)c4)nnc-3co2)cc1Br)C(F)(F)F | > 0.1 nM |
| O=S(=O)(c1ccc(-c2nn[nH]c2-c2cc3c(-c4cccc(O)c4)nnc-3co2)cc1Br)C(F)(F)F | > 0.1 nM |
| N#Cc1ccc(-n2nccc2-c2ccc3nnn(-c4cccc(O)c4)c3c2)cc1 | > 0.1 nM |
